Source: paper PMC8524858, “Dual inhibition of αvβ6 and αvβ1 reduces fibrogenesis in lung tissue explants from patients with IPF” (Respiratory Research, 2021)

Tests used:
[1] = biological target: T1, αvβ6-induced TGF-β activation (Homo sapiens, UniProt P06756+P18564); assay: TGF-β co-culture assay, SW-β6 cells with MLEC luciferase reporter cells; assay type: cell-based; details: integrin αvβ6
T1 construct: expressed in transfected cells; host or cells: SW480 cells stably transfected with β6 (SW-β6), co-cultured with MLEC reporter cells
Experimental: (§1) SW-β6 cells and MLECs or CHO-αv cells and MLECs were cultured in 96-well plates with test compounds or antibodies for 20 h at 37 °C in a 5% CO2 incubator. […] Measurement of MLEC luciferase production resulting from αvβ6- or αvβ1-mediated TGF-β activation was performed using the Bright-Glo Luciferase Assay System (Promega; Madison, WI, USA) according to manufacturer’s instruction. Luminescence was quantified by a Tecan Spark 10M plate reader. IC50 curves were generated using Dotmatics software suite with five-parameter logistic curve fitting. Geometric mean IC50 was calculated for each compound from multiple independent analyses.

human integrin αvβ1 = biological target: T2, human integrin αvβ1 (Homo sapiens, UniProt P05556+P06756); assay: Integrin ligand-binding assay, αvβ1 (fibronectin ligand)
T2 construct: purchased ACROBiosystems or R&D Systems IT1-H52E1 or 6579-AVB
Experimental: Integrin ligand-binding assays were performed similar to that previously described.
Microplates were coated with recombinant human integrins dissolved in PBS (2 µg/ml, overnight at room temperature). Following removal of the coating solution, plates were washed with PBS. Plates were blocked with 200 µL/well of blocking buffer (2% bovine serum albumin [BSA] in PBS) at 37 °C for 1 h. […] Plates were incubated for 2 h at 25 °C, washed, and incubated for 1 h with biotin-labeled anti-fibronectin or anti-LAP antibodies (for αvβ1 or αvβ6/αvβ8, respectively).

[2] = test system: αvβ1-induced TGF-β activation; assay: TGF-β co-culture assay, CHO-αv cells with MLEC luciferase reporter cells; assay type: cell-based, human; details: integrin αvβ1
Experimental: as §1

[3] = test system: PCLSs prepared from bleomycin-challenged mouse lungs; assay: Col1a1 expression in PCLSs from bleomycin-challenged mouse lungs; assay type: cell-based
Description: PCLSs were generated from explanted lung tissue from patients with IPF and cultured as previously described. Mouse PCLSs were generated and cultured as previously described. Messenger ribonucleic acid (mRNA) levels in lysates prepared from snap-frozen tissue slices were quantified via NanoString PlexSet reagents and nCounter SPRINT Profiler (NanoString; Seattle, WA, USA; Additional file 1: Table S2) or TaqMan primers/probes on a Bio-Rad CFX96 thermocycler (Bio-Rad; Hercules, CA, USA; Additional file 1: Table S3).
Mouse PCLSs were generated and cultured based on previously reported methods (E13). Briefly, mice were challenged with bleomycin (Hospira; Lake Forest, IL, USA or Teva; Toronto, ON, Canada), either acutely with a single dose (3 U/kg or 4 U/kg) or chronically with multiple doses (3 U/kg bleomycin followed by four 1 U/kg challenges at 2-week intervals). Fourteen days after the final bleomycin challenge, lungs were harvested and 200 μm-thick slices were cut using a Compresstome VF-300-0Z (Precisionary Instruments).
Slices from each individual core (human) or mouse were distributed among the treatment groups to control for variability in the fibrotic injury within the tissue. […] After 3 or 7 days in culture, slices were washed and snap-frozen. Viability of sentinel slices on Days 0/1 and 3/7 was determined using WST-1 Cell Proliferation Reagent (Sigma 5015944001; St Louis, MO, USA).
For all figures (except Fig. 2B, Fig. S2, and Fig. S4), snap-frozen tissue slices were incubated in one-third RLT buffer (Qiagen #79216; Venlo, Netherlands) supplemented with 2 mg/ml proteinase K (Sigma-Aldrich #3115887001; St Louis, MO, USA) at 55 °C for 2 h 45 min, with periodic vortexing to generate ribonucleic acid (RNA)-compatible tissue lysate. This lysate was incubated overnight with probes from a custom fibrosis gene panel and NanoString PlexSet reagents (Table S2). The following day, samples were analyzed on a NanoString nCounter SPRINT Profiler (NanoString; Seattle, WA, USA). Messenger RNA (mRNA) counts were normalized to housekeeping genes (GUSB, HPRT1, RPLP0, and/or POLR1B) and total mRNA counts, relative to vehicle-treated control from the same experiment, are reported.
For Figs. 2B, S2, and S4, RNA purification and qPCR were performed by Transcriptic, Inc. (Menlo Park, CA, USA) using a proprietary automated protocol. Briefly, RNA was purified on a KingFisher Flex system (Thermo Fisher) and qPCR was performed on a Bio-Rad CFX96 (Bio-Rad; Hercules, CA, USA) with TaqMan primers/probes (Thermo Fisher) listed in Table S3. Ct values were normalized to housekeeping genes (Rn18sRn45s and Hprt) and reported as ddCT and fold change versus the vehicle-treated samples.

T1 sequence (P06756 31-1048): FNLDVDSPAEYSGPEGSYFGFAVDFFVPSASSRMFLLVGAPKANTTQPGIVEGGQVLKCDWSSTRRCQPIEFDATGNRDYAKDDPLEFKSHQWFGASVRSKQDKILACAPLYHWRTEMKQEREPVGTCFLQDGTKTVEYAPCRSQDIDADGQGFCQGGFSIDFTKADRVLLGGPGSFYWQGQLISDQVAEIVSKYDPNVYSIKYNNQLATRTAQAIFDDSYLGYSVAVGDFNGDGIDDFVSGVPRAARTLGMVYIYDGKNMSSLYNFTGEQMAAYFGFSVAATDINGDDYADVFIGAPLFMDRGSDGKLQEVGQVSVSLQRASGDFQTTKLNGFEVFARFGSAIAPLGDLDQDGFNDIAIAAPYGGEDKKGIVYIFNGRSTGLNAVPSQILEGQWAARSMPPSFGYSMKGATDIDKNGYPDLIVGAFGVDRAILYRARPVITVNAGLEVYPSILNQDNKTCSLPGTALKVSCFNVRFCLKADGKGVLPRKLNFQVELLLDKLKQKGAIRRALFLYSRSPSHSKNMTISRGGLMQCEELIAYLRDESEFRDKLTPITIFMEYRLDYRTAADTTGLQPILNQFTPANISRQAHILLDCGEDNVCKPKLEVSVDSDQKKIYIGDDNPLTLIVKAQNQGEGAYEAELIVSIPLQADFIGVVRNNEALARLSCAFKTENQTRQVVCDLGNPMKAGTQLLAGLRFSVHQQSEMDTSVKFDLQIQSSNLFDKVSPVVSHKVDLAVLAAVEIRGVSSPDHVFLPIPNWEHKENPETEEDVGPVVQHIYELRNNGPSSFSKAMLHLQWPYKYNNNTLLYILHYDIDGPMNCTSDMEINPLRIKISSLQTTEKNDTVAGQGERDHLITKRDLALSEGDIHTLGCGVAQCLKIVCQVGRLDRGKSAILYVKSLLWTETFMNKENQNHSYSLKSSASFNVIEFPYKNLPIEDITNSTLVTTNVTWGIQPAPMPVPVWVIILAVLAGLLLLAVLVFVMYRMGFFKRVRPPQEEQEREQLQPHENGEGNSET
T1 sequence (P18564 22-788): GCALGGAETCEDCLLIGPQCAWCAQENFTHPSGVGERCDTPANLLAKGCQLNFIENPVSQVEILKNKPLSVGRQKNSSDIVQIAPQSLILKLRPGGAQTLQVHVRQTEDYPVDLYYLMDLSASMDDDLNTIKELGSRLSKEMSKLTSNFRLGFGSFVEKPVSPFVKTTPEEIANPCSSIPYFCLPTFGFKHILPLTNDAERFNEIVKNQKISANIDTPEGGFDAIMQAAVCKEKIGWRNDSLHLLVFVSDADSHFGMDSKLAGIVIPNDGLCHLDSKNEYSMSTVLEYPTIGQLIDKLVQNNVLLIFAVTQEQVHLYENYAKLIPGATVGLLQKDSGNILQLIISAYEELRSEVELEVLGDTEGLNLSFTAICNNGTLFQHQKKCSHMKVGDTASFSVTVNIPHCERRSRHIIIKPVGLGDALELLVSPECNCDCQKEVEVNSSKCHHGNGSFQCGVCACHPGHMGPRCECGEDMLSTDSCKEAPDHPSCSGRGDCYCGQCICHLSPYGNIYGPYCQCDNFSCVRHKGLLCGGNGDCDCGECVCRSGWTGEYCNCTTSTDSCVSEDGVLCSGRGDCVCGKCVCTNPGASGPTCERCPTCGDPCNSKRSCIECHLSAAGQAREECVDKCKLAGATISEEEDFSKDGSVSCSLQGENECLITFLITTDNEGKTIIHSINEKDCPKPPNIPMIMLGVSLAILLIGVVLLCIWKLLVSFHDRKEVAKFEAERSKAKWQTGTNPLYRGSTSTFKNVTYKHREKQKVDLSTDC
T2 sequence (P06756 31-992 limits assumed): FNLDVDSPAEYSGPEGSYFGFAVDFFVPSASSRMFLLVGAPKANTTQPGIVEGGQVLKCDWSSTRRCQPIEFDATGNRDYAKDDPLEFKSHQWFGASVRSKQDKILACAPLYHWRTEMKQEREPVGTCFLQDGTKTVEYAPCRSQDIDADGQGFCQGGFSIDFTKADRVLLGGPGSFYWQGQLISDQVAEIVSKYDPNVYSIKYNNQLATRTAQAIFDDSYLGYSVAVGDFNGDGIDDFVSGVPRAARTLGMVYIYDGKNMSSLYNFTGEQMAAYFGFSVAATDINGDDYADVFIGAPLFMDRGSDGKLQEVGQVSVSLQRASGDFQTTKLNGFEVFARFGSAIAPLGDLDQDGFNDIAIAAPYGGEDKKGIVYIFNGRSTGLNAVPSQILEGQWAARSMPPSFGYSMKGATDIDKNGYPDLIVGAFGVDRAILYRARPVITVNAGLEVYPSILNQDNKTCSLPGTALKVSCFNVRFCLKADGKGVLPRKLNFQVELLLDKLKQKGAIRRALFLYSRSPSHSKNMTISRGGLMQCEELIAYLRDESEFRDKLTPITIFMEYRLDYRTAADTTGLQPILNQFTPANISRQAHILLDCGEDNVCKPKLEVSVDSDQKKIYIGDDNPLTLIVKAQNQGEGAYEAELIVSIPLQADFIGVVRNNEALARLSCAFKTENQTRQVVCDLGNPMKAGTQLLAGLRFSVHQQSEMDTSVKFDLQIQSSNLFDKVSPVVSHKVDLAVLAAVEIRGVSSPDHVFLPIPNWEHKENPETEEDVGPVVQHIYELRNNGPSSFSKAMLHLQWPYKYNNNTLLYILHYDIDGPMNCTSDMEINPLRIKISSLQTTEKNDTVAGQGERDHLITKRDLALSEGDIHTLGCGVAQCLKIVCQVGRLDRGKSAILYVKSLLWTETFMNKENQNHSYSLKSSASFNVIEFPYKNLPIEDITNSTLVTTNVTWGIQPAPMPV
T2 sequence (P05556 21-728 limits assumed): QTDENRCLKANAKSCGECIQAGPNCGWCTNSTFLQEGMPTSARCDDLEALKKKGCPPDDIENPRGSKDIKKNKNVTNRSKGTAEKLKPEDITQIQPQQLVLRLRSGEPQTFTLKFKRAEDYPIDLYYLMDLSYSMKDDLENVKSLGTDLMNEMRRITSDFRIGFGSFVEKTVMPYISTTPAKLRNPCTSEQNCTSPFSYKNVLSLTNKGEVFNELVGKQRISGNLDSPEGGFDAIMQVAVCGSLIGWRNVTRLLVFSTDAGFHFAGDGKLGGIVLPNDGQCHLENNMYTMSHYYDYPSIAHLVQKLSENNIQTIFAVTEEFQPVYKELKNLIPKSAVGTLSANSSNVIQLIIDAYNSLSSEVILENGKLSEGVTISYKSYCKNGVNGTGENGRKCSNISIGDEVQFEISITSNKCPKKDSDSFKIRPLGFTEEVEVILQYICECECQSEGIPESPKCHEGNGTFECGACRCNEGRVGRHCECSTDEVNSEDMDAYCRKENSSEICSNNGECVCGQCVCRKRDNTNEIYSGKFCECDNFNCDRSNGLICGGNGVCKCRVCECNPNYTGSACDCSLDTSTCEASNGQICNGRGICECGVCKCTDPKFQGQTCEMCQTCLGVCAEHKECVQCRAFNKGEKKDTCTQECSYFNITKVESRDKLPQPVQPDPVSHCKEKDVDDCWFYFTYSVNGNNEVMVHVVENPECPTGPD

Structure (SMILES): COCCN(CCCCc1ccc2c(n1)NCCC2)CC[C@H](Nc1ncnc2ccccc12)C(=O)O [PLN-74809]
- Fold selectivity (vs αvβ6) ([1]; TGF-β activation): 1×
- IC50 [1]: 29.8 nM
- IC50 (human integrin αvβ1): 3.4 nM
- Fold selectivity (vs αvβ6) (human integrin αvβ1; ligand binding): 0.6×
- Fold selectivity (vs αvβ6) ([2]; TGF-β activation): 0.6×
- IC50 [2]: 19.2 nM
- lowest concentration with significant reduction of Col1a1 mRNA expression ([3]; 3 days of treatment (Fig. S2)): 16 nM
- reduction of Col1a1 mRNA expression ([3]; 3 days of treatment, dose titration (Fig. S2)): up to 71%
- IC50 ([3]; Mus musculus, 72 h, 3 days of treatment, extrapolation from dose-response curve of combined experiments (Fig. S4), read-out: minimum concentration required to reduce Col1a1 mRNA levels by 50%): 172 nM
- inhibition of collagen mRNA expression ([3]; acutely injured mouse lungs, 3 days, PLN-74809 200 nM, GSK3008348 1000 nM, CWHM-12 1000 nM (Fig. 2B)): virtually the same degree as less selective multi-αv integrin inhibitors
- effect on Col1a1 gene expression ([3]; chronic bleomycin-challenged mouse lungs, 7 days of treatment, nintedanib and pirfenidone at approximate clinical Cmax (Fig. 6C)): significantly reduced
- effect on Col1a1 mRNA expression ([3]; chronic bleomycin-challenged mouse lungs, 7 days, Compound A 471 nM, 3G9 0.5 µg/ml, PLN-74809 1.82 µM (Fig. 2A)): effective at significantly reducing
